Measured values: patent US20230382925A1, “MODULATORS OF CYSTIC FIBROSIS TRANSMEMBRANE CONDUCTANCE REGULATOR” (VERTEX PHARMACEUTICALS INCORPORATED, priority 2020, published 2023)
Where two headings read alike, the source gives them in different places.

Target: CFTR (Homo sapiens, UniProt P13569)
Test: Membrane Potential Dye, Enteroid Assay B
Format: cell-based
In short: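 Human intestinal enteroid cells exposed to compound 18-24 h at 37 °C, then loaded with methyl oxonol membrane-potential dye plus CaCC blockers. Chloride transport triggered in chloride-free buffer with 10 μM forskolin, 100 μM IBMX, 300 nM Compound III; fluorescence read 15 min, expressed as % of triple-corrector/potentiator combination control.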

[1] = Table 10, read-out: Ent. B EC50

Chain of CFTR (P13569 with tags, fused parts or gaps DEL508-508): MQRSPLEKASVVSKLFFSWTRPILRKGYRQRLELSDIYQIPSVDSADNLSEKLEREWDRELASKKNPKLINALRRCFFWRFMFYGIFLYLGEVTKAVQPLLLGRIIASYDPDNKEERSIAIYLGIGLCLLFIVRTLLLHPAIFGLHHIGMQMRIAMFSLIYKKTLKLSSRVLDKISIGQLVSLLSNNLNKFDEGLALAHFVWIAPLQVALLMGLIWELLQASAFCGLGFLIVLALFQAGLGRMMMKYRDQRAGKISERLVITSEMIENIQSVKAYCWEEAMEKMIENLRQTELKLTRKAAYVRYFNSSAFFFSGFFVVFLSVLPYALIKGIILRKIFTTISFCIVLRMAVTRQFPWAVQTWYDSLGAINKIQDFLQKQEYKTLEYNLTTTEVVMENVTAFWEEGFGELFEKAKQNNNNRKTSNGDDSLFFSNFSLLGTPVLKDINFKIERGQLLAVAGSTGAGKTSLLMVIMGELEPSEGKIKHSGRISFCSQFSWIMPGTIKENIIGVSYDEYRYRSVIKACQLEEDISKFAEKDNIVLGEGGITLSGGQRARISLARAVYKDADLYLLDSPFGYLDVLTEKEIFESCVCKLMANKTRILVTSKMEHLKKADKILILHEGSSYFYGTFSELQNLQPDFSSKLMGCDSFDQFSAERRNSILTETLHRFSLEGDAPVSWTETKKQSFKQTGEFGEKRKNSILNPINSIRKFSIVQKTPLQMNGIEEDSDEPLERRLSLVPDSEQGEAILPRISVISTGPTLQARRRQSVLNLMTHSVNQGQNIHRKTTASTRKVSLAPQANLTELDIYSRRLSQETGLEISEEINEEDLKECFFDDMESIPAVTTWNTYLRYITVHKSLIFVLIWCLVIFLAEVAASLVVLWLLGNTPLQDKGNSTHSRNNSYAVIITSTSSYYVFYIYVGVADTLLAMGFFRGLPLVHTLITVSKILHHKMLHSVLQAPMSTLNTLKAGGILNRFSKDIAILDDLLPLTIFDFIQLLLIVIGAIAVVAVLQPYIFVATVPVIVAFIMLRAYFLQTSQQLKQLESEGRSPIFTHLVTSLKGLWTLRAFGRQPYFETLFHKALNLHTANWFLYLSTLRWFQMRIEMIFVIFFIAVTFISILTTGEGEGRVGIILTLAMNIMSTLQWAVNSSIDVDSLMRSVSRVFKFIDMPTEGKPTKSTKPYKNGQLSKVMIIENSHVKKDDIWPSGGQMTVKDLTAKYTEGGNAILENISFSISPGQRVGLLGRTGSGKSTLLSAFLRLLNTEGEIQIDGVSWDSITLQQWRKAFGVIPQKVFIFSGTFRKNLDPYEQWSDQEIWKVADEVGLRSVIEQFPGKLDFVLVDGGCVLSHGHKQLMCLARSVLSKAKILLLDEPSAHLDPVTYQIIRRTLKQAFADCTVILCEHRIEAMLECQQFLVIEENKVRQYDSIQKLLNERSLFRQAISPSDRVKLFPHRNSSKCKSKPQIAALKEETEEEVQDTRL

| Compound | Ent. B Max Activity (%) (Table 10) | EC50 [1] [nM] | Ent. B Max Activity (%) (Table 9) | EC50 (Table 9, read-out: Ent. B EC50) [nM] | also measured |
| --- | --- | --- | --- | --- | --- |
| Cc1cccc(C)c1-c1cc2nc(n1)NS(=O)(=O)c1cccc(c1)C(=O)N(C1CC(NC(=O)OC(C)C)C1)[C@H](CC(C)(C)C(F)(F)F)CO2 (single isomer, unassigned) [Compound 195] | ++ (++ is 30-60%) | < 1000 |  |  |  |
| CCN(C(=O)OC)C1CC(N2C(=O)c3cccc(c3)S(=O)(=O)Nc3nc(cc(-c4c(C)cccc4C)n3)OC[C@H]2CC(C)(C)C)C1 (single isomer, unassigned) [Compound 237] | ++ (++ is 30-60%) | < 1000 |  |  |  |
| CCN(C(=O)OC)C1CC(N2C(=O)c3cccc(c3)S(=O)(=O)Nc3nc(cc(-c4c(C)cccc4C)n3)OC[C@H]2CC(C)(C)C)C1 (single isomer, unassigned) [Compound 238] | ++ (++ is 30-60%) | < 1000 |  |  |  |
| CCC(=O)N(C)C1CC(N2C(=O)c3cccc(c3)S(=O)(=O)Nc3nc(cc(-c4c(C)cccc4C)n3)OC[C@H]2CC(C)(C)C)C1 (single isomer, unassigned) [Compound 240] | ++ (++ is 30-60%) | < 1000 |  |  |  |
| Cc1cccc(C)c1-c1cc2nc(n1)NS(=O)(=O)c1cccc(c1)C(=O)N(C1CC(NC(=O)C(C)C)C1)[C@H](CC(C)(C)C)CO2 (single isomer, unassigned) [Compound 444] |  |  | +++ (+++ is >60%) | < 1000 |  |
| CC(=O)NC1CC(N2C(=O)c3cccc(c3)S(=O)(=O)Nc3nc(cc(-c4c(C)cccc4C)n3)OC[C@H]2CC(C)(C)C)C1 (single isomer, unassigned) [Compound 448] |  |  | +++ (+++ is >60%) | < 1000 |  |
| Cc1cccc(C)c1-c1cc2nc(n1)NS(=O)(=O)c1cccc(c1)C(=O)N([C@H]1C[C@@H](OC(F)(F)F)C1)[C@H](CC1(C(F)(F)F)CC1)CO2 (stereo in doubt) [Compound 212] | ++ (++ is 30-60%) | < 1000 |  |  |  |
| Cc1cccc(C)c1-c1cc2nc(n1)NS(=O)(=O)c1cccc(c1)C(=O)N(C1CC(OC(F)(F)F)C1)[C@H](CC(C)C)CO2 (stereo in doubt) [Compound 213] |  |  | +++ (+++ is >60%) | < 1000 |  |
| Cc1cccc(C)c1-c1cc2nc(n1)NS(=O)(=O)c1cccc(c1)C(=O)N(C1CC(OC(F)(F)F)C1)[C@H](CC(C)C)CO2 (stereo in doubt) [Compound 214] |  |  | +++ (+++ is >60%) | < 1000 |  |
| CCN(C(=O)OC)C1CC2(C1)CC(N1C(=O)c3cccc(c3)S(=O)(=O)Nc3nc(cc(-c4c(C)cccc4C)n3)OC[C@H]1CC(C)(C)C)C2 (stereo in doubt) [Compound 236] | ++ (++ is 30-60%) | < 1000 |  |  |  |
| CCC(=O)N(C)C1CC(N2C(=O)c3cccc(c3)S(=O)(=O)Nc3nc(cc(-c4c(C)cccc4C)n3)OC[C@H]2CC(C)(C)C)C1 (stereo in doubt) [Compound 239] | ++ (++ is 30-60%) | < 1000 |  |  |  |
| COC(=O)N(C)C1(C)CC(N2C(=O)c3cccc(c3)S(=O)(=O)Nc3nc(cc(-c4c(C)cccc4C)n3)OC[C@H]2CC(C)(C)C)C1 (stereo in doubt) [Compound 241] | ++ (++ is 30-60%) | < 1000 |  |  |  |
| Cc1cccc(C)c1-c1cc2nc(n1)NS(=O)(=O)c1cccc(c1)C(=O)N([C@H]1C[C@](C)(NC(=O)OC(C)C)C1)[C@H](CC(C)(C)C)CO2 (stereo in doubt) [Compound 244] | ++ (++ is 30-60%) | < 1000 |  |  |  |
| Cc1cccc(C)c1-c1cc2nc(n1)NS(=O)(=O)c1cccc(c1)C(=O)N([C@H]1C[C@](C)(NC(=O)OC(C)C)C1)[C@H](CC(C)(C)C)CO2 (stereo in doubt) [Compound 245] | +++ (+++ is >60%) | < 1000 |  |  |  |
| Cc1cccc(C)c1-c1cc2nc(n1)NS(=O)(=O)c1cccc(c1)C(=O)N([C@H]1C[C@@H](N3CCOC3=O)C1)[C@H](CC(C)(C)C)CO2 (stereo in doubt) [Compound 251] | +++ (+++ is >60%) | < 1000 |  |  |  |
| Cc1cccc(C)c1-c1cc2nc(n1)NS(=O)(=O)c1cccc(c1)C(=O)N([C@H]1C[C@@H](N(CCO)CCO)C1)[C@H](CC(C)(C)C)CO2 (stereo in doubt) [Compound 252] | + (+ is <300%) | < 1000 |  |  |  |
| COC(=O)N(C)[C@H]1C[C@@]2(C1)C[C@H](N1C(=O)c3cccc(c3)S(=O)(=O)Nc3nc(cc(-c4c(C)cccc4C)n3)OC[C@H]1CC1(C(F)(F)F)CC1)C2 (stereo in doubt) [Compound 259] |  |  | +++ (+++ is >60%) | < 1000 |  |
| COC(=O)N(C)[C@H]1C[C@]2(C1)C[C@H](N1C(=O)c3cccc(c3)S(=O)(=O)Nc3nc(cc(-c4c(C)cccc4C)n3)OC[C@H]1CC1(C(F)(F)F)CC1)C2 (stereo in doubt) [Compound 260] |  |  | +++ (+++ is >60%) | < 1000 |  |
| COC(=O)NC[C@H]1C[C@@H](N2C(=O)c3cccc(c3)S(=O)(=O)Nc3nc(cc(-c4c(C)cccc4C)n3)OC[C@H]2CC(C)C)C1 (stereo in doubt) [Compound 264] |  |  | +++ (+++ is >60%) | < 1000 |  |

| Compound | Ent. B Max Activity (%) (Table 10) | EC50 [1] [nM] | Ent. B Max Activity (%) (Table 9) | EC50 (Table 9, read-out: Ent. B EC50) [nM] | also measured |
| --- | --- | --- | --- | --- | --- |
| COCCN1CC(N2C(=O)c3cccc(c3)S(=O)(=O)Nc3nc(cc(-c4c(C)cccc4C)n3)OC[C@H]2CC(C)C)CC1(C)C (stereo in doubt) [Compound 277] |  |  | +++ (+++ is >60%) | 1000 to 3000 |  |
| CNC1CC2(C1)CC(N1C(=O)c3cccc(c3)S(=O)(=O)Nc3nc(cc(-c4c(C)cccc4C)n3)OC[C@H]1CC(C)C)C2 (stereo in doubt) [Compound 282] |  |  | +++ (+++ is >60%) | < 1000 |  |
| COCCNC1CC2(C1)CC(N1C(=O)c3cccc(c3)S(=O)(=O)Nc3nc(cc(-c4c(C)cccc4C)n3)OC[C@H]1CC(C)C)C2 (stereo in doubt) [Compound 287] |  |  | +++ (+++ is >60%) | < 1000 |  |
| COCCNC1CC2(C1)CC(N1C(=O)c3cccc(c3)S(=O)(=O)Nc3nc(cc(-c4c(C)cccc4C)n3)OC[C@H]1CC(C)C)C2 (stereo in doubt) [Compound 288] |  |  | +++ (+++ is >60%) | < 1000 |  |
| Cc1cccc(C)c1-c1cc2nc(n1)NS(=O)(=O)c1cccc(c1)C(=O)N(C1CC3(CC(N)C3)C1)[C@H](CC(C)C)CO2 (stereo in doubt) [Compound 291] |  |  | +++ (+++ is >60%) | < 1000 |  |
| Cc1cccc(C)c1-c1cc2nc(n1)NS(=O)(=O)c1cccc(c1)C(=O)N(C1CC3(CC(N)C3)C1)[C@H](CC(C)C)CO2 (stereo in doubt) [Compound 292] |  |  | +++ (+++ is >60%) | < 1000 |  |
| COCCN1CCC(N2C(=O)c3cccc(c3)S(=O)(=O)Nc3nc(cc(-c4c(C)cccc4C)n3)OC[C@H]2CC(C)C)C1 (stereo in doubt) [Compound 294] |  |  |  |  | Ent. B Max Activity (%): +++ (+++ is >60%); EC50 (read-out: Ent. B EC50): < 1000 nM |
| Cc1cccc(C)c1-c1cc2nc(n1)NS(=O)(=O)c1cccc(c1)C(=O)N([C@H]1CCN(C)C1)[C@H](CC(C)C)CO2 (stereo in doubt) [Compound 295] |  |  |  |  | Ent. B Max Activity (%): +++ (+++ is >60%); EC50 (read-out: Ent. B EC50): < 1000 nM |
| Cc1cccc(C)c1-c1cc2nc(n1)NS(=O)(=O)c1cccc(c1)C(=O)N([C@H]1CCN(C)C1)[C@H](CC(C)C)CO2 (stereo in doubt) [Compound 296] |  |  |  |  | Ent. B Max Activity (%): +++ (+++ is >60%); EC50 (read-out: Ent. B EC50): 3000 to 30000 nM |
| [H][C@]1(N2C(=O)c3cccc(c3)S(=O)(=O)Nc3nc(cc(-c4c(C)cccc4C)n3)OC[C@H]2CC(C)(C)C)C[C@@]2(C[C@H](NC(=O)OC3CCC3)C2)C1 (stereo in doubt) [Compound 355] | ++ (++ is 30-60%) | < 1000 |  |  |  |
| [H][C@]1(N2C(=O)c3cccc(c3)S(=O)(=O)Nc3nc(cc(-c4c(C)cccc4C)n3)OC[C@H]2CC(C)(C)C)C[C@@]2(C[C@H](NC(=O)OC3CC3)C2)C1 (stereo in doubt) [Compound 356] | +++ (+++ is >60%) | < 1000 |  |  |  |
| Cc1cccc(C)c1-c1cc2nc(n1)NS(=O)(=O)c1cccc(c1)C(=O)N([C@H]1C[C@@H](NC34CC(CO)(C3)C4)C1)[C@H](CC(C)C)CO2 (stereo in doubt) [Compound 358] | +++ (+++ is >60%) | < 1000 |  |  |  |
| Cc1cccc(C)c1-c1cc2nc(n1)NS(=O)(=O)c1cccc(c1)C(=O)N([C@H]1C[C@@H](OC(=O)Nc3ccccc3)C1)[C@H](CC(C)C)CO2 (stereo in doubt) [Compound 360] | +++ (+++ is >60%) | < 1000 |  |  |  |
| CNC(=O)O[C@H]1C[C@@H](N2C(=O)c3cccc(c3)S(=O)(=O)Nc3nc(cc(-c4c(C)cccc4C)n3)OC[C@H]2CC(C)C)C1 (stereo in doubt) [Compound 361] | ++ (++ is 30-60%) | < 1000 |  |  |  |
| Cc1cccc(C)c1-c1cc2nc(n1)NS(=O)(=O)c1cccc(c1)C(=O)N([C@H]1C[C@H](OC(=O)NCc3ccccc3)C1)[C@H](CC(C)C)CO2 (stereo in doubt) [Compound 362] | ++ (++ is 30-60%) | < 1000 |  |  |  |
| Cc1cccc(C)c1-c1cc2nc(n1)NS(=O)(=O)c1cccc(c1)C(=O)N([C@H]1C[C@H](OC(=O)NCC3CCCCC3)C1)[C@H](CC(C)C)CO2 (stereo in doubt) [Compound 363] | ++ (++ is 30-60%) | < 1000 |  |  |  |
| COCCNC(=O)O[C@H]1C[C@H](N2C(=O)c3cccc(c3)S(=O)(=O)Nc3nc(cc(-c4c(C)cccc4C)n3)OC[C@H]2CC(C)C)C1 (stereo in doubt) [Compound 364] | +++ (+++ is >60%) | < 1000 |  |  |  |
| Cc1cccc(C)c1-c1cc2nc(n1)NS(=O)(=O)c1cccc(c1)C(=O)N([C@H]1C[C@@H](N3C[C@@H](O)CC3=O)C1)[C@H](CC(C)C)CO2 (stereo in doubt) [Compound 370] | ++ (++ is 30-60%) | < 1000 |  |  |  |
